Data from patent publication US6506373B1, “Agent and method for permanent waving” (Wella Aktiengesellschaft, priority 1998, dated 2003).

Experiments:
[1] = Bundle tensile strength of permanently waved and fixed hair
Experimental: The amount of permanent waving liquid was calculated from the ratio 1:1.2 (1 g of hair to 1.2 g of permanent waving liquid). The amount of 1.2 ml to 1 g of hair corresponds to an amount of 50 ml of permanent waving solution per head with an average weight of […] of hair per head. This solution was allowed to act for 15 minutes; the temperature of the reducing agent acting was 50° C. The permanent waving agent, based on thioglycolic acid, was rinsed out well with water (2 to 3 minutes). Subsequently, the hair strands were in each case moistened intensively with the respective ready-for-use fixative. This procedure was repeated three or six times, in that the strands, after each treatment, was suspended for six hours in the water bath.
The tensile strength of the bundles, which are a measure of the preservation of the hair, were determined using individual strands of hair.

[2] = cited from earlier work
[3] = Permanent waving application test: reductive treatment, then fixing with the ready-for-use fixative; settings: hair reduced with 10% thioglycolic acid solution pH 8.2, then fixed
Experimental: In these examples, the hair was treated reductively in each case in the following manner:
The solution was allowed to act for 15 minutes. The reducing agent acted at a temperature of 50° C.
At the end of the period of action, the excess permanent waving solution was rinsed out with water and the fixing solution was then applied with a sponge. The fixing solution is prepared 2 minutes before use by dissolving component 1 in component 2.
The hair is fixed for 30 minutes at 22° C. and subsequently rinsed with water. The curlers are then removed and the hair is rinsed with lukewarm water. Finally, the hair is styled and then dried.

| Compound | increase in hair damage on repeated use (bundle tensile strength after three vs six treatments) [1] | stability in aqueous solution [2] | brightening of the hair (shift in color) [3] |
| --- | --- | --- | --- |
| O=C1O[C@H]([C@@H](O)CO)C(=O)C1=O [Dehydroascorbic Acid, dehydroascorbic acid] | no increase in hair damage | unstable and decomposes within a few hours | – |
| OO [Peroxide, hydrogen peroxide] | – | – | clearly detectable shift in coloring the direction of red and yellow |
